Measurements taken from PubChem BioAssay AID2060330 (Molecular Pharmacology Branch, DTP, NCI, 2025).

System: LG0703-F948-PDC spheroids with HUVEC/MSC, viability
Experiment: Anticancer human tumor LG0703-F948-PDC patient-derived lung adenocarcinoma cell line growth inhibition [IpAb]
Conditions: for IC50: curve of first compound; for viability, T/C: stronger effect = lower value
Summary of the method: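 Spheroids of 60% malignant cells, 25% HUVEC and 15% MSC were exposed to targeted agents combined with ipatasertib or abemaciclib. Doses started at or near clinical Cmax (10 microM when unknown) and fell in half-log steps.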

[1] = second compound 0.1 µM, first compound 0.0316 µM
[2] = second compound 0.1 µM, first compound 0.1 µM
[3] = second compound 0.1 µM, first compound 0.316 µM
[4] = second compound 0.1 µM, first compound 1 µM
[5] = second compound 0.316 µM, first compound 0.0316 µM
[6] = second compound 0.316 µM, first compound 0.1 µM
[7] = second compound 0.316 µM, first compound 0.316 µM
[8] = second compound 0.316 µM, first compound 1 µM
[9] = second compound 1 µM, first compound 0.0316 µM
[10] = second compound 1 µM, first compound 0.1 µM
[11] = second compound 1 µM, first compound 0.316 µM
[12] = second compound 1 µM, first compound 1 µM
[13] = second compound 3.16 µM, first compound 0.0316 µM
[14] = second compound 3.16 µM, first compound 0.1 µM
[15] = second compound 3.16 µM, first compound 0.316 µM
[16] = second compound 3.16 µM, first compound 1 µM
[17] = second compound 10 µM, first compound 0.0316 µM
[18] = second compound 10 µM, first compound 0.1 µM
[19] = second compound 10 µM, first compound 0.316 µM
[20] = second compound 10 µM, first compound 1 µM
[21] = second compound 0.1 µM, first compound 3.16 µM
[22] = second compound 0.1 µM, first compound 10 µM
[23] = second compound 0.316 µM, first compound 3.16 µM
[24] = second compound 0.316 µM, first compound 10 µM
[25] = second compound 1 µM, first compound 3.16 µM
[26] = second compound 1 µM, first compound 10 µM
[27] = second compound 3.16 µM, first compound 3.16 µM
[28] = second compound 3.16 µM, first compound 10 µM
[29] = second compound 10 µM, first compound 3.16 µM
[30] = second compound 10 µM, first compound 10 µM
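Note: spheroids exposed to compounds for seven days before readout.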
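Throughout, for viability, T/C: T/C percent relative to DMSO vehicle wells set as 100% viability.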

## CC(=O)c1c(C)c2cnc(Nc3ccc(N4CCNCC4)cn3)nc2n(C2CCCC2)c1=O + CC(C)NCC(C(=O)N1CCN(c2ncnc3c2C(C)CC3O)CC1)c1ccc(Cl)cc1
Second compound 0.1 µM
  IC50: > 300 nM
Second compound 0.316 µM
  IC50: > 300 nM
Second compound 1 µM
  IC50: 2.55 nM
Second compound 3.16 µM
  IC50: < 0.949 nM
Second compound 10 µM
  IC50: < 0.949 nM
Second compound 0.1 µM, first compound 0.000949 µM
  viability, T/C: 86.8%
Second compound 0.1 µM, first compound 0.003 µM
  viability, T/C: 86%
Second compound 0.1 µM, first compound 0.00949 µM
  viability, T/C: 84.8%
Second compound 0.1 µM, first compound 0.03 µM
  viability, T/C: 73.3%
Second compound 0.1 µM, first compound 0.0949 µM
  viability, T/C: 80.4%
Second compound 0.1 µM, first compound 0.3 µM
  viability, T/C: 73.4%
Second compound 0.316 µM, first compound 0.000949 µM
  viability, T/C: 70.5%
Second compound 0.316 µM, first compound 0.003 µM
  viability, T/C: 69.7%
Second compound 0.316 µM, first compound 0.00949 µM
  viability, T/C: 60.5%
Second compound 0.316 µM, first compound 0.03 µM
  viability, T/C: 62.5%
Second compound 0.316 µM, first compound 0.0949 µM
  viability, T/C: 58.4%
Second compound 0.316 µM, first compound 0.3 µM
  viability, T/C: 60.3%
Second compound 1 µM, first compound 0.000949 µM
  viability, T/C: 54.6%
Second compound 1 µM, first compound 0.003 µM
  viability, T/C: 53.1%
Second compound 1 µM, first compound 0.00949 µM
  viability, T/C: 42.4%
Second compound 1 µM, first compound 0.03 µM
  viability, T/C: 41.8%
Second compound 1 µM, first compound 0.0949 µM
  viability, T/C: 42.1%
Second compound 1 µM, first compound 0.3 µM
  viability, T/C: 43.9%
Second compound 3.16 µM, first compound 0.000949 µM
  viability, T/C: 50.1%
Second compound 3.16 µM, first compound 0.003 µM
  viability, T/C: 41.8%
Second compound 3.16 µM, first compound 0.00949 µM
  viability, T/C: 41.7%
Second compound 3.16 µM, first compound 0.03 µM
  viability, T/C: 42.2%
Second compound 3.16 µM, first compound 0.0949 µM
  viability, T/C: 34.9%
Second compound 3.16 µM, first compound 0.3 µM
  viability, T/C: 33.5%
Second compound 10 µM, first compound 0.000949 µM
  viability, T/C: 41.5%
Second compound 10 µM, first compound 0.003 µM
  viability, T/C: 37.9%
Second compound 10 µM, first compound 0.00949 µM
  viability, T/C: 43.5%
Second compound 10 µM, first compound 0.03 µM
  viability, T/C: 40%
Second compound 10 µM, first compound 0.0949 µM
  viability, T/C: 33.5%
Second compound 10 µM, first compound 0.3 µM
  viability, T/C: 27.5%

## COc1c(OCCCN2CCOCC2)ccc2c3n(c(=NC(=O)c4cnc(N)nc4)nc12)CCN3 + CC(C)NCC(C(=O)N1CCN(c2ncnc3c2C(C)CC3O)CC1)c1ccc(Cl)cc1
Second compound 0.1 µM
  IC50: 26.6 nM
Second compound 0.316 µM
  IC50: 13.6 nM
Second compound 1 µM
  IC50: 3.91 nM
Second compound 3.16 µM
  IC50: < 3.16 nM
Second compound 10 µM
  IC50: < 3.16 nM
Second compound 0.1 µM, first compound 0.00316 µM
  viability, T/C: 84.6%
Second compound 0.1 µM, first compound 0.01 µM
  viability, T/C: 70.1%
[1]
  viability, T/C: 47%
[2]
  viability, T/C: 21.8%
[3]
  viability, T/C: 6.53%
[4]
  viability, T/C: 4.98%
Second compound 0.316 µM, first compound 0.00316 µM
  viability, T/C: 66.5%
Second compound 0.316 µM, first compound 0.01 µM
  viability, T/C: 51.5%
[5]
  viability, T/C: 39.8%
[6]
  viability, T/C: 15.7%
[7]
  viability, T/C: 5.88%
[8]
  viability, T/C: 3.95%
Second compound 1 µM, first compound 0.00316 µM
  viability, T/C: 52.1%
Second compound 1 µM, first compound 0.01 µM
  viability, T/C: 42.5%
[9]
  viability, T/C: 30.1%
[10]
  viability, T/C: 11.3%
[11]
  viability, T/C: 5.86%
[12]
  viability, T/C: 4.35%
Second compound 3.16 µM, first compound 0.00316 µM
  viability, T/C: 41.9%
Second compound 3.16 µM, first compound 0.01 µM
  viability, T/C: 35.7%
[13]
  viability, T/C: 19.8%
[14]
  viability, T/C: 11.6%
[15]
  viability, T/C: 4.56%
[16]
  viability, T/C: 4.47%
Second compound 10 µM, first compound 0.00316 µM
  viability, T/C: 38.6%
Second compound 10 µM, first compound 0.01 µM
  viability, T/C: 28.4%
[17]
  viability, T/C: 25.3%
[18]
  viability, T/C: 7.44%
[19]
  viability, T/C: 3.76%
[20]
  viability, T/C: 2.45%

## Cc1nc(NC(=O)N2CCCC2C(N)=O)sc1-c1ccnc(C(C)(C)C(F)(F)F)c1 (stereo not given) + CC(C)NCC(C(=O)N1CCN(c2ncnc3c2C(C)CC3O)CC1)c1ccc(Cl)cc1
Second compound 0.1 µM
  IC50: 929 nM
Second compound 0.316 µM
  IC50: 366 nM
Second compound 1 µM
  IC50: 64.8 nM
Second compound 3.16 µM
  IC50: < 31.6 nM
Second compound 10 µM
  IC50: < 31.6 nM
[1]
  viability, T/C: 77.9%
[2]
  viability, T/C: 76.6%
[3]
  viability, T/C: 64.3%
[4]
  viability, T/C: 50.7%
[21]
  viability, T/C: 22.4%
[22]
  viability, T/C: 2.44%
[5]
  viability, T/C: 59.6%
[6]
  viability, T/C: 60.8%
[7]
  viability, T/C: 52.1%
[8]
  viability, T/C: 36.5%
[23]
  viability, T/C: 21.1%
[24]
  viability, T/C: 2.34%
[9]
  viability, T/C: 54%
[10]
  viability, T/C: 46.7%
[11]
  viability, T/C: 39.7%
[12]
  viability, T/C: 32.1%
[25]
  viability, T/C: 13.8%
[26]
  viability, T/C: 1.78%
[13]
  viability, T/C: 45.5%
[14]
  viability, T/C: 39.7%
[15]
  viability, T/C: 35.8%
[16]
  viability, T/C: 24.1%
[27]
  viability, T/C: 13.1%
[28]
  viability, T/C: 2.03%
[17]
  viability, T/C: 39.5%
[18]
  viability, T/C: 33.4%
[19]
  viability, T/C: 35.9%
[20]
  viability, T/C: 19%
[29]
  viability, T/C: 12.3%
[30]
  viability, T/C: 1.55%

## Cn1nccc1Nc1nccc(-c2ccn(C(CO)c3ccc(Cl)c(F)c3)c(=O)c2)n1 (stereo not given) + CC(C)NCC(C(=O)N1CCN(c2ncnc3c2C(C)CC3O)CC1)c1ccc(Cl)cc1
Second compound 0.1 µM
  IC50: 502 nM
Second compound 0.316 µM
  IC50: 97 nM
Second compound 1 µM
  IC50: < 31.6 nM
Second compound 3.16 µM
  IC50: < 31.6 nM
Second compound 10 µM
  IC50: < 31.6 nM
[1]
  viability, T/C: 67.3%
[2]
  viability, T/C: 66.3%
[3]
  viability, T/C: 49.8%
[4]
  viability, T/C: 39.7%
[21]
  viability, T/C: 50.3%
[22]
  viability, T/C: 37.6%
[5]
  viability, T/C: 64.7%
[6]
  viability, T/C: 49.4%
[7]
  viability, T/C: 36.5%
[8]
  viability, T/C: 28%
[23]
  viability, T/C: 32.5%
[24]
  viability, T/C: 27.1%
[9]
  viability, T/C: 45%
[10]
  viability, T/C: 39.8%
[11]
  viability, T/C: 21.7%
[12]
  viability, T/C: 15.3%
[25]
  viability, T/C: 12.3%
[26]
  viability, T/C: 16%
[13]
  viability, T/C: 38.2%
[14]
  viability, T/C: 33%
[15]
  viability, T/C: 16.4%
[16]
  viability, T/C: 9.61%
[27]
  viability, T/C: 9.49%
[28]
  viability, T/C: 5.88%
[17]
  viability, T/C: 32.5%
[18]
  viability, T/C: 22.6%
[19]
  viability, T/C: 29.5%
[20]
  viability, T/C: 6.93%
[29]
  viability, T/C: 4.16%
[30]
  viability, T/C: 3.23%
